In patent US20240246977A1, “DEGRADATION OF BRUTON'S TYROSINE KINASE (BTK) BY CONJUGATION OF BTK INHIBITORS WITH E3 LIGASE LIGAND AND METHOD OF USE” (BeiGene Switzerland GmbH, priority 2021, published 2024):
Read-outs that look alike come from different tables or passages of the source.

Assays:
BTK = BTK (Homo sapiens, UniProt Q06187); assay: BTK cell degradation in TMD-8 cells, HTRF assay; type: cell-based; design: endogenous in cells; host or cells: TMD-8 cells; settings: 6 h treatment, IC50 (DC50) of BTK degradation
In short: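 BTK levels read by HTRF in lysates of TMD-8 cells exposed to compounds for 6 h, eight concentrations at 6-fold steps in 0.2% DMSO. Percent degradation versus DMSO and low controls was fitted with a four-parameter equation to give DC50; Dmax is maximal degradation.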

HEK-293 cells = assay: HEK-293 cytotoxicity detection (CellTiter-Glo); type: cell-based; settings: 72 h incubation, CellTiter-Glo luminescence, read-out: HEK293
In short: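 HEK-293 cells exposed 72 h to 8 compounds doses (4-fold dilutions, top stock 5 mM at 500×) in 0.2% DMSO. Viability by CellTiter-Glo luminescence; inhibition normalised to DMSO high control and low control, IC50 from four-parameter curve fit.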

Sequence of BTK (Q06187 whole entry): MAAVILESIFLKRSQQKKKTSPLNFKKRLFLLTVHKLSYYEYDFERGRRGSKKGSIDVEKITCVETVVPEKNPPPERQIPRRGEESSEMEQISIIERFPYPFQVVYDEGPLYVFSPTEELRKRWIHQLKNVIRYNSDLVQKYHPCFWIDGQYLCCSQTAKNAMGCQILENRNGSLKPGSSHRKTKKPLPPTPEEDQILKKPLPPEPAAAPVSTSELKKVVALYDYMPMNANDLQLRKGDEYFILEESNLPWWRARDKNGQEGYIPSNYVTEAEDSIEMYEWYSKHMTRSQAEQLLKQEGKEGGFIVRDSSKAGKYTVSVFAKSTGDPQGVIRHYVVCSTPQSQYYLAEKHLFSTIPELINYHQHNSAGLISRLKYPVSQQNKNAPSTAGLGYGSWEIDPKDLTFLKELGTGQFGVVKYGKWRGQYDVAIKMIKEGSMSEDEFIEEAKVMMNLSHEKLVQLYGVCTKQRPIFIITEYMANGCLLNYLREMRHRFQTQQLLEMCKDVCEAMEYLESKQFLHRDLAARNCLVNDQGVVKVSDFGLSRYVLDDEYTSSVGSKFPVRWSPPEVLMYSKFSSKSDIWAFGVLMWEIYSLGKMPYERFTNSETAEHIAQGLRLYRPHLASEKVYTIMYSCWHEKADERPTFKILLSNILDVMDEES

SMILES	DC50 (BTK) [nM]	IC50 (HEK-293 cells; Homo sapiens, 72 h) [nM]	IC50 (HEK-293 cells) [nM]
COc1ccc(Cl)cc1C(=O)NCc1ccc(-c2nn3c(c2C(N)=O)Nc2ccc(N4CCN(CC5CCN(c6ccc(N7CCC(=O)NC7=O)cc6)CC5)CC4)cc2CC3)cc1C [Example C6, 2-(4-((5-chloro-2-methoxybenzamido)methyl)-3-methylphenyl)-7-(4-((1-(4-(2,4-dioxotetrahydropyrimidin-1(2H)-yl)phenyl)piperidin-4-yl)methyl)piperazin-1-yl)-9,10-dihydro-4H-benzo[d]pyrazolo[1,5-a][1,3]diazepine-3-carboxamide]	3.4	> 10000	–
COc1cc(Oc2ccccc2)ccc1-c1nn2c(c1C(N)=O)Nc1ccc(N3CCN(CC4CCN(c5ccc(N6CCC(=O)NC6=O)cc5)CC4)CC3)cc1CC2 [Example A36, 7-(4-((1-(4-(2,4-dioxotetrahydropyrimidin-1(2H)-yl)phenyl)piperidin-4-yl)methyl)piperazin-1-yl)-2-(2-methoxy-4-phenoxyphenyl)-9,10-dihydro-4H-benzo[d]pyrazolo[1,5-a][1,3]diazepine-3-carboxamide]	3.6	148	–
Cc1cc(C(=O)Nc2cc(C(F)(F)F)ccn2)ccc1-c1nn2c(c1C(N)=O)Nc1ccc(N3CCN(CC4CCN(c5ccc(N6CCC(=O)NC6=O)cc5)CC4)CC3)cc1CC2 [Example B6, 7-(4-((1-(4-(2,4-dioxotetrahydropyrimidin-1(2H)-yl)phenyl)piperidin-4-yl)methyl)piperazin-1-yl)-2-(2-methyl-4-((4-(trifluoromethyl)pyridin-2-yl)carbamoyl)phenyl)-9,10-dihydro-4H-benzo[d]pyrazolo[1,5-a][1,3]diazepine-3-carboxamide]	2.22	> 10000	–
Cc1cccc(NC(=O)c2cc(F)c(-c3nn4c(c3C(N)=O)Nc3ccc(N5CCN(CC6CCN(c7ccc(N8CCC(=O)NC8=O)cc7)CC6)CC5)cc3CC4)cc2C)n1 [Example B30, 7-(4-((1-(4-(2,4-dioxotetrahydropyrimidin-1(2H)-yl)phenyl)piperidin-4-yl)methyl)piperazin-1-yl)-2-(2-fluoro-5-methyl-4-((6-methylpyridin-2-yl)carbamoyl)phenyl)-9,10-dihydro-4H-benzo[d]pyrazolo[1,5-a][1,3]diazepine-3-carboxamide]	2.53	> 10000	–
Cc1cccc(NC(=O)c2ccc(-c3nn4c(c3C(N)=O)Nc3ccc(N5CCN(C6CN(c7ccc(N8CCC(=O)NC8=O)cc7)C6)CC5)cc3CC4)c(F)c2C)n1 [Example B66, 7-(4-(1-(4-(2,4-dioxotetrahydropyrimidin-1(2H)-yl)phenyl)azetidin-3-yl)piperazin-1-yl)-2-(2-fluoro-3-methyl-4-((6-methylpyridin-2-yl)carbamoyl)phenyl)-9,10-dihydro-4H-benzo[d]pyrazolo[1,5-a][1,3]diazepine-3-carboxamide]	1.35	> 10000	–
Cc1cc(Cl)cc(NC(=O)c2ccc(-c3nn4c(c3C(N)=O)Nc3ccc(N5CCN(CC6CCN(c7ccc(N8CCC(=O)NC8=O)cc7)CC6)CC5)cc3CC4)c(F)c2C)n1 [Example B42, 2-(4-((4-chloro-6-methylpyridin-2-yl)carbamoyl)-2-fluoro-3-methylphenyl)-7-(4-((1-(4-(2,4-dioxotetrahydropyrimidin-1(2H)-yl)phenyl)piperidin-4-yl)methyl)piperazin-1-yl)-9,10-dihydro-4H-benzo[d]pyrazolo[1,5-a][1,3]diazepine-3-carboxamide]	3.67	> 10000	–
Cc1cccc(NC(=O)c2ccc(-c3nn4c(c3C(N)=O)Nc3ccc(N5CCN(CC6CCN(c7ccc(N8CCC(=O)N(CC(=O)OCc9ccccc9)C8=O)cc7)CC6)CC5)cc3CC4)c(F)c2C)n1 [Example B80, benzyl 2-(3-(4-(4-((4-(3-carbamoyl-2-(2-fluoro-3-methyl-4-((6-methylpyridin-2-yl)carbamoyl)phenyl)-9,10-dihydro-4H-benzo[d]pyrazolo[1,5-a][1,3]diazepin-7-yl)piperazin-1-yl)methyl)piperidin-1-yl)phenyl)-2,6-dioxotetrahydropyrimidin-1(2H)-yl)acetate]	> 2000	> 10000	–
COc1cc(F)c(F)cc1C(=O)NCc1ccc(-c2nn3c(c2C(N)=O)Nc2ccc(N4CCN(CC5CCN(c6ccc(N7CCC(=O)NC7=O)cc6)CC5)CC4)cc2CC3)cc1 [Example C30, 2-(4-((4,5-difluoro-2-methoxybenzamido)methyl)phenyl)-7-(4-((1-(4-(2,4-dioxotetrahydropyrimidin-1(2H)-yl)phenyl)piperidin-4-yl)methyl)piperazin-1-yl)-9,10-dihydro-4H-benzo[d]pyrazolo[1,5-a][1,3]diazepine-3-carboxamide]	0.786	> 10000	–
NC(=O)c1c(-c2ccc(Oc3ccccc3)cc2)nn2c1Nc1ccc(NC(=O)C3CCN(c4cccc5c4C(=O)N(C4CCC(=O)NC4=O)C5=O)CC3)cc1CC2 (stereo not shown) [Example A11, 7-(1-(2-(2,6-dioxopiperidin-3-yl)-1,3-dioxoisoindolin-4-yl)piperidine-4-carboxamido)-2-(4-phenoxyphenyl)-9,10-dihydro-4H-benzo[d]pyrazolo[1,5-a][1,3]diazepine-3-carboxamide]	5.71	826	–
Cc1c(C(=O)Nc2ccc3[nH]ccc3n2)ccc(-c2nn3c(c2C(N)=O)Nc2ccc(N4CCN(CC5CCN(c6ccc(N7CCC(=O)NC7=O)cc6)CC5)CC4)cc2CC3)c1F [Example B45, 2-(4-((1H-pyrrolo[3,2-b]pyridin-5-yl)carbamoyl)-2-fluoro-3-methylphenyl)-7-(4-((1-(4-(2,4-dioxotetrahydropyrimidin-1(2H)-yl)phenyl)piperidin-4-yl)methyl)piperazin-1-yl)-9,10-dihydro-4H-benzo[d]pyrazolo[1,5-a][1,3]diazepine-3-carboxamide]	1.69	> 10000	–
NC(=O)c1c(-c2ccc(C(=O)Nc3cc(C(F)(F)F)ccn3)cc2)nn2c1Nc1ccc(N3CCN(CC4CCN(c5ccc(N6CCC(=O)NC6=O)cc5)CC4)CC3)cc1CC2 [Example B1, 7-(4-((1-(4-(2,4-dioxotetrahydropyrimidin-1(2H)-yl)phenyl)piperidin-4-yl)methyl)piperazin-1-yl)-2-(4-((4-(trifluoromethyl)pyridin-2-yl)carbamoyl)phenyl)-9,10-dihydro-4H-benzo[d]pyrazolo[1,5-a][1,3]diazepine-3-carboxamide]	0.561	–	> 10000
NC(=O)c1c(-c2ccc(Oc3ccccc3)cc2)nn2c1Nc1cc(C3CCN(CCc4ccc(C5CCC(=O)NC5=O)cc4)CC3)ccc1CC2 (stereo not shown) [Example A34, 6-(1-(4-(2,6-dioxopiperidin-3-yl)phenethyl)piperidin-4-yl)-2-(4-phenoxyphenyl)-9,10-dihydro-4H-benzo[d]pyrazolo[1,5-a][1,3]diazepine-3-carboxamide]	11.9	337	–
NC(=O)c1c(-c2ccc(Oc3ccccc3)cc2)nn2c1Nc1ccc(OCCC3CCN(c4ccc(N5CCC(=O)NC5=O)cc4)CC3)cc1CC2 [Example A24, 7-(2-(1-(4-(2,4-dioxotetrahydropyrimidin-1(2H)-yl)phenyl)piperidin-4-yl)ethoxy)-2-(4-phenoxyphenyl)-9,10-dihydro-4H-benzo[d]pyrazolo[1,5-a][1,3]diazepine-3-carboxamide]	9.26	235	–
CC(Nc1cc(C(F)(F)F)ccn1)c1ccc(-c2nn3c(c2C(N)=O)Nc2ccc(N4CCN(CC5CCN(c6ccc(N7CCC(=O)NC7=O)cc6)CC5)CC4)cc2CC3)cc1 (stereo not shown) [Example C15, 7-(4-((1-(4-(2,4-dioxotetrahydropyrimidin-1(2H)-yl)phenyl)piperidin-4-yl)methyl)piperazin-1-yl)-2-(4-(1-((4-(trifluoromethyl)pyridin-2-yl)amino)ethyl)phenyl)-9,10-dihydro-4H-benzo[d]pyrazolo[1,5-a][1,3]diazepine-3-carboxamide]	14.6	8850	–
NC(=O)c1c(-c2ccc(Oc3ccccc3)cc2)nn2c1Nc1cc(NC(=O)C3CCN(CC4CCN(c5ccc6c(c5)C(=O)N(C5CCC(=O)NC5=O)C6=O)CC4)CC3)ccc1CC2 (stereo not shown) [Example A18, 6-(1-((1-(2-(2,6-dioxopiperidin-3-yl)-1,3-dioxoisoindolin-5-yl)piperidin-4-yl)methyl)piperidine-4-carboxamido)-2-(4-phenoxyphenyl)-9,10-dihydro-4H-benzo[d]pyrazolo[1,5-a][1,3]diazepine-3-carboxamide]	9.62	2510	–
COc1ccc(C(F)(F)F)cc1C(=O)NCc1ccc(-c2nn3c(c2C(N)=O)Nc2ccc(N4CCN(CC5CCN(c6ccc(N7CCC(=O)NC7=O)cc6)CC5)CC4)cc2CC3)cc1 [Example C21, 7-(4-((1-(4-(2,4-dioxotetrahydropyrimidin-1(2H)-yl)phenyl)piperidin-4-yl)methyl)piperazin-1-yl)-2-(4-((2-methoxy-5-(trifluoromethyl)benzamido)methyl)phenyl)-9,10-dihydro-4H-benzo[d]pyrazolo[1,5-a][1,3]diazepine-3-carboxamide]	0.703	> 10000	–
COc1cnccc1C(=O)NCc1ccc(-c2nn3c(c2C(N)=O)Nc2ccc(N4CCN(CC5CCN(c6ccc(N7CCC(=O)NC7=O)cc6)CC5)CC4)cc2CC3)cc1C [Example C37, 7-(4-((1-(4-(2,4-dioxotetrahydropyrimidin-1(2H)-yl)phenyl)piperidin-4-yl)methyl)piperazin-1-yl)-2-(4-((3-methoxyisonicotinamide)methyl)-3-methylphenyl)-9,10-dihydro-4H-benzo[d]pyrazolo[1,5-a][1,3]diazepine-3-carboxamide]	12.4	> 10000	–
